How the values were obtained:
[1] = system: Arabidopsis thaliana; test: Seed Germination Assay; type: in vivo; conditions: for time for 100% germination: Arabidopsis seed, 0.3 ppm test compound, 0.5% DMSO
Method: To determine the germination inhibition potency of the analogs, a germination assay was performed with the model plant Arabidopsis thaliana. Arabidopsis seed was sterilized by shaking for five minutes in 200 proof ethanol, followed by shaking for five minutes in a 10% bleach solution. The seeds were then washed five times in sterile, distilled, de-ionized water and suspended in 0.1% phytoagar. The tubes containing the seeds were wrapped in aluminum foil and stratified at 4° C. for at least two days. The analogs were tested in four-well plates. Each plate contained one well each of a 0.5% DMSO control, (S)-ABA, (S)-3′-methyl-ABA (Example 2) and (±)-3′-methyl-ABA (Example 4), all at a desired concentration. In a typical experiment, 18 microliters of a 100 ppm stock solution of each compound in 10% DMSO was pipetted into the designated well. Additional DMSO (28.2 microliters) and water (3.8 microliters) was added to each well, followed by the addition of 5.95 mL of ½×Murashige and Skoog media containing 1.2% Bactoagar to all the wells. This gave a total volume of 6.0 mL per well, 0.3 ppm of the test compound and final DMSO concentration of 0.5%. When the media solidified, one hundred sterile stratified Arabidopsis seeds were distributed into each well. The plates were sealed with surgical tape and placed in a growth chamber running diurnal cycles of 12 hours of light at 24° C. and 12 hours of darkness at 19° C. The plates were scanned daily at high resolution (600 dpi) until all seeds were germinated. A seed was scored as germinated once the radicle emerged. The percentage of seeds germinated each day is reported in the graph of FIG. 1. The tests at each concentration were repeated at least twice and the results were reproducible.

[2] = system: rice seedling; conditions: according to Ueno, et al.; cited from earlier work
[3] = system: (S)-ABA 8′-hydroxylase; conditions: according to Ueno, et al.; cited from earlier work

**Q.** With CC1=CC(=O)CC(C)(C)[C@@]1(O)/C=C/C(C)=C/C(=O)O [(S)-ABA, (S)-abscisic acid] as the compound, how does the “time for 100% germination” value [1] read?
**A.** 6 days

**Q.** With CC1=C(C)[C@](O)(/C=C/C(C)=C\C(=O)O)C(C)(C)CC1=O [Example 2, (2Z,4E)-((S)-1-hydroxy-2,3,6,6-tetramethyl-4-oxocyclohex-2-en-1-yl)-3-methylpenta-2,4-dienoic acid] as the compound, how does the “potency at inhibiting Arabidopsis seed germination relative to (S)-ABA or (±)-3′-methyl-ABA” value ([1]; 0.3 ppm, FIG. 1) read?
**A.** more potent

**Q.** What about the “time for 100% germination” value [1] of the same compound?
**A.** 15 days

**Q.** Which “time for 100% germination” value [1] does the source give for CC1=C(C)C(O)(/C=C/C(C)=C\C(=O)O)C(C)(C)CC1=O (racemic) [Example 4, (±)-(2Z,4E)-5-(1-hydroxy-2,3,6,6-tetramethyl-4-oxocyclohex-2-en-1-yl)-3-methylpenta-2,4-dienoic acid] here?
**A.** 8 days

**Q.** What about the “activity in rice seedling elongation assay relative to (S)-ABA” value [2] of the same compound?
**A.** equal activity to (S)-ABA

**Q.** And the “activity in (S)-ABA 8′-hydroxylase inhibition assay relative to (S)-ABA” value [3]?
**A.** weaker activity than (S)-ABA
